Experimental data reported in patent US10537103B2, “Antibacterial composition containing an isomer mixture of monosaccharide alkyl monoacetals or monoethers” (TEREOS STARCH & SWEETENERS BELGIUM, priority 2014, dated 2020).
Values after ≈ are worked out from the molar mass of the structure shown.

Legend:
E. faecalis (ATCC 29212) = test: Minimum inhibitory concentration (MIC), 96-well microplate microdilution; assay type: cell-based; details: 18 h at 37° C.; for MIC: Enterococcus faecalis, ATCC29212, 18 h
Method: (§1) The bacteriostatic properties of the derivatives are evaluated by measuring their minimum inhibitory concentration (MIC) on the bacteria tested. These measurements are made using the 96-well microplate microdilution method according to the conditions defined below.
(§2) The minimum inhibitory concentrations (MIC) are tested on Gram-positive bacterial strains according to the recommendations of the “Clinical Laboratory Standards Institute” (Clinical-Laboratory-Standards-Institute, 6th ed. Approved standard M100-S17. CLSI, Wayne, Pa., 2007).
(§3) The Gram-positive bacteria studied are as follows: L. monocytogenes (CIP 103575), E. faecalis (ATCC® 29212™) and S. aureus (ATCC® 292213™).
(§4) The cultures studied, freshly isolated (after incubation on a blood agar at 37° C. for 18 h), are taken up in sterile water (10 mL) until obtaining a 0.5 McFarland (Mc) suspension i.e. 1 to 2×10^8 CFU (bacteria)/cm^3. The bacterial suspension was then diluted to obtain a final concentration of 5×10^5 CFU/cm^3.
(§5) Each well contains an identical quantity of Mueller-Hinton medium (a rich medium for bacterial culture) and bacteria with final 5×10^5 CFU/cm^3.
(§6) The test compounds of interest are solubilized in 2.5% m of ethanol before being diluted to different concentrations two by two.
(§7) On the multiwell plate, a first series has been planned comprising the culture medium without the test compound of interest. It corresponds to the growth control (control well). These controls serve as reference for comparing bacterial growth with that of the subsequent wells comprising different concentrations of the test compound of interest. The second series of wells comprises the mother solution for the test compound of interest for a concentration in the wells of 4 mM. Each series of wells was diluted two by two until the last series for a final concentration of 0.003 mM. Each concentration is duplicated in the same plate. The plate is incubated for 18 h at 37° C. […] If there is antibacterial activity, the bacterial growth is inhibited, which means that no turbidity or bacterial residue is present.
(§8) Tests have been conducted on Gram-positive bacteria with methyl glucopyranoside derivatives. […] After sterilization the solutions are diluted in water. […] Because precipitates formed in the solutions, the effect of these methyl glucopyranoside C10 and C12 acetals was not able to be evaluated. The results obtained for antimicrobial tests on the 3 bacterial strains L. monocytogenes (CIP 103575), E. faecalis (ATCC® 29212) and S. aureus (ATCC® […]) are summarized in Table 1.
(§9) The sorbitan C5, C6, C8, C10 and C12 acetals and ethers were then tested under the same conditions as previously and on the same bacterial strains (see example 5).

[1] = system: L. monocytogenes (CIP 103575); test: as above; assay type: cell-based; details: Listeria monocytogenes, CIP103575, 18 h at 37° C.
Method: as §1, §2, §3, §4, §5, §6, §7, §8, §9

S. aureus (ATCC 292213) = test: as above; assay type: cell-based; details: Staphylococcus aureus, ATCC292213, 18 h at 37° C.
Method: as §1, §2, §3, §4, §5, §6, §7, §8, §9

[2] = Water solubility of test solutions; assay type: physicochemical; details: solutions diluted in water, 2.5% m ethanol; precipitates formed
Method: as §8

S. aureus = details: cited from earlier work
L. monocytogenes = details: cited from earlier work
[3] = system: Gram-positive bacteria (L. monocytogenes, E. faecalis, S. aureus); test: MIC / antimicrobial activity stated for the Gram-positive strains studied together; assay type: cell-based; details: concentrations less than or equal to 4 mM
Method: as §1, §2, §3, §4
Each well contains an identical quantity of Mueller-Hinton medium (a rich medium for bacterial culture) and bacteria with final 5×10^5 CFU/cm^3. […]
Tests have been conducted on Gram-positive bacteria with methyl glucopyranoside derivatives. […] Because precipitates formed in the solutions, the effect of these methyl glucopyranoside C10 and C12 acetals was not able to be evaluated. […]

| Compound | MIC (E. faecalis (ATCC 29212)) [µM] | MIC [1] [µM] | MIC (S. aureus (ATCC 292213)) [mM] | melting point [°C] | other results |
| --- | --- | --- | --- | --- | --- |
| CCCCC1OCC2O[C@H](OC)C(O)C(O)[C@@H]2O1 (stereo partly drawn) [Compound 1a, Methyl 4,6-O-pentylidene α-D-glucopyranoside] | > 4000 | > 4000 | > 4 | – | – |
| CCCCCC1OCC2O[C@H](OC)C(O)C(O)[C@@H]2O1 (stereo partly drawn) [Compound 1b, Methyl 4,6-O-Hexylidene α-D-glucopyranoside] | > 4000 | > 4000 | > 4 | – | – |
| CCCCCCCC1OCC2O[C@H](OC)C(O)C(O)[C@@H]2O1 (stereo partly drawn) [Compound 1c, Methyl 4,6-O-Octylidene α-D-glucopyranoside] | 2000 (≈ 609 µg/mL) | 2000 (≈ 609 µg/mL) | 4 (≈ 1220 µg/mL) | – | Minimum inhibitory concentration (MIC) E. faecalis (E. faecalis (ATCC 29212); listed as AcC8 MeGlu): 4 mmol/L (≈ 1220 µg/mL) |
| CCCCCCCCCC1OCC2O[C@H](OC)C(O)C(O)[C@@H]2O1 (stereo partly drawn) [Compound 1d, Methyl 4,6-O-Decylidene α-D-glucopyranoside] | – | – | – | 72 | water solubility [2]: low water solubility |
| CCCCCCCCCCCC1OCC2O[C@H](OC)C(O)C(O)[C@@H]2O1 (stereo partly drawn) [Compound 1g, Methyl 4,6-O-Dodecylidene α-D-mannopyranoside] | – | – | – | 104 | – |
| CCCCCCCCCCCC1OCC2O[C@H](OC)C(O)C(O)[C@H]2O1 (stereo partly drawn) [Compound 1h, Methyl 4,6-O-Dodecylidene α-D-galactopyranoside] | – | – | – | 115 | – |
| CCCCCCCCCCCC(=O)OCC(O)CO (centres unmarked) [ML, monolaurine] | – | – | – | – | Minimum inhibitory concentration (MIC) S. aureus, compounds known in the prior art (S. aureus): 0.04 mmol/L (≈ 11 µg/mL); Minimum inhibitory concentration (MIC) L. monocytogenes, compounds known in the prior art (L. monocytogenes): 0.04 mmol/L (≈ 11 µg/mL) |
| CCCCCCCCCCCC=O [dodecanal] | – | – | – | – | antimicrobial activity on the different bacterial strains [3]: no antimicrobial activity |
